Columns and labels:
MC38 colon cancer = MC38 colon cancer tumor growth (FIG. 25A); type: in vivo, mice; settings: 5 mg/kg, i.p
Description: (§1) FIGS. 25A-B is a set of curves showing the tumor growth of MC38 (FIG. 25A) or CT26 (FIG. 25B) colon cancer in mice treated with PBS (Control; closed circles), clonidine (5 mg/kg, i.p; closed squares) or apraclonidine (5 mg/kg, i.p; closed triangles).

CT26 colon cancer = CT26 colon cancer tumor growth (FIG. 25B); type: in vivo, mice; settings: 5 mg/kg, i.p
Description: as §1

[1] = stated without a test; cited from earlier work
cholangiocarcinoma = settings: in vitro; Kanno et al., Hepatology, 2002; cited from earlier work

| Compound | tumor growth (MC38 colon cancer) | tumor growth (CT26 colon cancer) | crossing of the blood-brain barrier [1] | cholangiocarcinoma growth (cholangiocarcinoma) |
| --- | --- | --- | --- | --- |
| Nc1cc(Cl)c(N=C2NCCN2)c(Cl)c1 [apraclonidine] | anti-tumor effect | anti-tumor effect | does not cross the blood-brain barrier | – |
| brimonidine tartrate [UK14,304] | – | – | – | significantly decreases cholangiocarcinoma growth |

Source: patent US20230165836A1, “ALPHA-2 ADRENERGIC RECEPTOR AGONISTS FOR THE TREATMENT OF CANCER” (UNIVERSITÉ CATHOLIQUE DE LOUVAIN, priority 2020, published 2023)
